Experiments:
Type in all cases: cell-based, mouse
Bcl-2 = assay: Immunoblotting, Bcl-2 expression in GL261; settings: GL261, 300 µM, 48 h
Protocol: (§1) GL261 cell was seeded at 2.5 × 10^4 cells per well in 24-well plates with culture medium supplemented with 10% FBS. After 24 h of incubation, the medium was changed to DMEM containing 10% FBS and 0.1%DMSO PBS, 300 μM temozolomide, 10 μM astaxanthin, or 10 μM adonixanthin was added for 6 and 48 h. Cells were lysed in a special buffer (RIPA buffer R0278; Sigma-Aldrich, St. Louis, MO, USA) with a protease inhibitor cocktail (Sigma-Aldrich), phosphatase inhibitor cocktails 2 and 3 (Sigma-Aldrich), and sample buffer (Wako, Osaka, Japan). The protein concentration was determined by comparison with a known concentration of bovine serum albumin using the BCA Protein Assay Kit (Thermo Fisher Scientific). The amount of total protein was 2 μg. Equal amounts of protein in sample buffer containing 10% 2-mercaptoethanol were subjected to sodium dodecyl sulphate polyacrylamide gel electrophoresis (SDS-PAGE) in 5-20% gradient gels (SuperSep Ace; Wako), and the separated proteins were transferred to polyvinylidene difluoride membrane (Immobilon-P; Merck Millipore Corporation, Bedford, MA, USA). After blocking for 30 min with Blocking One-P (Nacalai Tesque), we incubated the membranes with primary antibodies overnight at 4 °C. […] The band intensity was […] an Immuno Star LD (Wako). Band intensity was measured using an LAS-4000 UV mini Luminescent Image Analyzer (Fujifilm, Tokyo Japan) and Multi Gauge Version 3.0 (Fujifilm). The phosphorylation of ERK1/2, Akt, and p38 MAPK was measured by normalizing against total ERK1/2, total Akt, and total p38 MAPK. […]

GL261 cells = assay: BrdU cell proliferation assay; settings: GL261, temozolomide group (concentration not printed for this test); control group 60.56 ± 1.40%
Protocol: GL261 cells were seeded onto 96-well plates at a density of 2 × 10^3 cells/well with DMEM supplemented with 10% FBS and then incubated for 24 h, after which the culture medium was changed to DMEM containing 10% FBS. Then, astaxanthin, adonixanthin, or temozolomide (Tokyo Chemical Industry Co., Ltd., Tokyo, Japan) were added to the culture. After 72 h of culture, the culture medium was changed to DMEM containing 10% FBS and treated with BrdU at 10 µM for 3 h. After that, immunocytochemistry was performed according to the protocol of anti-BrdU antibody (abcam, ab6326).

p27 = assay: Immunoblotting, p27 expression in GL261; settings: GL261, 300 µM temozolomide, 48 h
Protocol: as §1

With `Cn1nnc2c(C(N)=O)ncn2c1=O` [temozolomide, reference compound] the “expression of Bcl-2 vs. control” value (Bcl-2) was “N.S”, the BrdU-positive cell rate (GL261 cells) was 19.17 ± 1.77% and the “expression of p27” value (p27) was “significantly reduced”.
